Assay results taken from patent publication US6548072B1, “Skin care compositions containing an organic extract of chick pea” (Chesebrough-Pond's USA Co., division of Conopco, Inc., priority 1997, dated 2003).

Assays:
piglet epidermal cells = assay: Piglet skin organ culture, 3H-thymidine incorporation into the epidermis; type: cell-based, pig
Description: Pig skin is morphologically and biochemically similar to human skin and is therefore used commonly for testing the effects of materials for, human topical use. Fresh shaved skin from piglets was obtained from the local slaughter house, washed with Dove® Soap and dermatomed at 200μ thickness to obtain the top epidermis and dermal layer. Uniform punch biopsies of the dermatomed pig skin was taken using a 7 mm punch. The biopsies were washed in medium containing high antibiotic/antimycotic mix(Kanamycin and penicillin and streptomycin from Gibco) and incubated for 3 days in high glucose DMEM medium containing hydrocortisone, L-glutamine, antibiotic and antimycotic in the absence of serum in transwell plates, 3 biopsies per well. The medium was fed from the bottom of the transwell so that the epidermal side of the biopsies was in contact with air. On the 3rd day, the medium was changed to fresh medium, and the biopsies were exposed to the various concentrations of various actives in 1 μl of DMSO, as indicated in Table 4. 3 days later, medium was changed, actives readded and the biopsies were labeled with 10 μCi of 3H thymidine per well. After washing the biopsies in PBS, the epidermis was split from the dermis by incubating the biopsies for 24 hrs in 2 M sodium bromide solution with shaking. The epidermis was peeled off from the dermis using a tweezer and dissolved in1 ml of 0.5N NaOH with overnight incubation at 60 ° C. 200 μl of the dissolved epidermis was used for scintillation counting to determine the amount of ^3H thymidine incorporation into the epidermis. The data was calculated as mean cpm for at least 4 replicates, and was also calculated as % of control biopsies which received no actives.

ZR75 cells = assay: 3H-thymidine incorporation (DNA synthesis / proliferation) in ZR75 cells, test for estrogen-like activity; type: cell-based, human; conditions: for ZR 75 DNA synthesis (% of Control): Experiment 1; for % of Control / cpm ± SD: 10 nM
Description: The incorporation of ^3H-thymidine by cultured cells was used as an assay of cell proliferation (ZR75 or keratinocyte). Thymidine is one of four deoxynucleosides which are the monomeric units of DNA. Prior to cell division of a somatic cell, the complete genome of the cell undergoing cell division is replicated. This involves large scale DNA synthesis by the cell and enables both daughter cells to receive identical copies of the genetic material. When ^3H-thymidine is included in the culture media of cells which are synthesizing DNA in preparation for cell division then the labeled thymidine is incorporated into the newly synthesized DNA. The extent of incorporation of ^3H-thymidine into a population of cells is proportional to the rate of DNA synthesis. by this population of cells and therefore an indication of their cellular proliferation.
ZR75 cell line is a ductal breast carcinoma cell line, originally isolated from malignant mammary epithelium of a person (Engel et al., Human breast carcinoma cells in continuous culture: A review., Cancer Res., 38: 4327-4339, 1978) This cell line contains receptors for estrogen, progesterone and other steroid hormones, but responds through an increase in proliferation only to estrogen. The cell line contains high affinity estrogen-specific receptors. Therefore, this cell line is used for testing estrogen-like activity (Markiewicz et al., In vitro bioassays of non-steroidal phytoestrogens, J. Steroid Biochem. Molec. Biol., 45: 399-405, 1993).
1. ZR75 cells (from American Type Culture Collection, Rockville, Md.) were grown in RPMT1640 media (from Gibco Life Technologies) with 10% fetal bovine serum (FBS), 100 units penicillin per ml and 100 units of streptomycin per ml. […] The. cells were seeded at a density of one million per 75 cm2 flask. For the experiment, the cells were seeded in 24 well plates at 100,000 cells per ml per well.
2. After growing for 24 hours, the media was removed, the cells were washed with PBS and 1 ml of RPMI 1640 without serum (but with streptomycin and penicillin) was added. Stock solutions of chick pea extract in dimethyl sulfoxide. (DMSO) and estradiol in water were prepared. […] After another 24 hours, […] of [methyl-3H] thymidine was added to each well. The media was removed after 24 hours. The cells were washed once in PBS, the PBS was removed completely and the cells were left on ice to incubate with 1 ml per well of10% TCA (trichlioroacetic acid) for 30 minutes. The plates were washed 3 times with 5% TCA to remove all traces of thymidine which wasn't incorporated into the cells. 500 μl of 0.1M sodium hydroxide was added to each well and the plates were incubated at room temperature for at least 30 minutes. 250 μl of each sample was transferred to scintillation vials and after adding 5 ml of counting fluid, the vials were counted for 5 minutes each on a setting for tritium. […] Values were expressed as mean of triplicate wells ± standard deviation.

O=c1c(-c2ccc(O)cc2)coc2cc(O)ccc12 [Daidzein, daidzein]
proliferation of piglet epidermal cells, in words (piglet epidermal cells): more effective than the natural hormone estradiol | % of Control (piglet epidermal cells; Experiment 1, 1 μg/ml): 227 ± 24.4 % of Control | cpm ± SD (piglet epidermal cells; Experiment 1, 1 μg/ml): 8599 ± 927 cpm | % of Control (piglet epidermal cells; Experiment 1, 10 μg/ml): 292 ± 76.5 % of Control | cpm ± SD (piglet epidermal cells; Experiment 1, 10 μg/ml): 11065 ± 2901 cpm

C[C@]12CC[C@@H]3c4ccc(O)cc4CC[C@H]3[C@@H]1CC[C@@H]2O [Estradiol, estradiol]
ZR 75 DNA synthesis (% of Control) (ZR75 cells; 0.01 nM): 117 ± 19.7 % of Control | ZR 75 DNA synthesis (% of Control) (ZR75 cells; 0.1 nM): 106 ± 16.3 % of Control | ZR 75 DNA synthesis (% of Control) (ZR75 cells; 1.0 nM): 162 ± 3.2 % of Control | ZR 75 DNA synthesis (% of Control) (ZR75 cells; 10.0 nM): 267 ± 15.1 % of Control | ZR 75 DNA synthesis (% of Control) (ZR75 cells; 100 nM): 203 ± 51.2 % of Control | ZR 75 DNA synthesis (% of Control) (ZR75 cells; 1000 nM): 178 ± 20.1 % of Control | % of Control (ZR75 cells; Experiment 2): 839 ± 27 % of Control | cpm ± SD (ZR75 cells; Experiment 2): 122254 ± 3940 cpm | % of Control (ZR75 cells; Experiment 3): 211 ± 7.6 % of Control | cpm ± SD (ZR75 cells; Experiment 3): 30158 ± 1087 cpm | concentration that increased DNA synthesis of ZR75 cells (ZR75 cells; Table 1): ≥ 1 nM | % of Control (piglet epidermal cells; Experiment 1, 1 nM): 58.9 ± 24.4 % of Control | cpm ± SD (piglet epidermal cells; Experiment 1, 1 nM): 2690 ± 1113 cpm | % of Control (piglet epidermal cells; Experiment 1, 10 nM): 113 ± 24 % of Control | cpm ± SD (piglet epidermal cells; Experiment 1, 10 nM): 5190 ± 1096 cpm | % of Control (piglet epidermal cells; Experiment 1, 100 nM): 39.0 ± 32.6 % of Control | cpm ± SD (piglet epidermal cells; Experiment 1, 100 nM): 1757 ± 1492 cpm | % of Control (piglet epidermal cells; Experiment 2, 1 nM): 196 ± 67.7 % of Control | cpm ± SD (piglet epidermal cells; Experiment 2, 1 nM): 2273 ± 783 cpm | % of Control (piglet epidermal cells; Experiment 2, 10 nM): 330 ± 101 % of Control | cpm ± SD (piglet epidermal cells; Experiment 2, 10 nM): 3817 ± 1175 cpm | % of Control (piglet epidermal cells; Experiment 2, 100 nM): 241 ± 65 % of Control | cpm ± SD (piglet epidermal cells; Experiment 2, 100 nM): 2785 ± 751 cpm

COc1ccc(-c2coc3cc(O)ccc3c2=O)cc1 [Formononetin, formononetin]
% of Control (piglet epidermal cells; Experiment 1, 1 μg/ml): 126 ± 33.2 % of Control | cpm ± SD (piglet epidermal cells; Experiment 1, 1 μg/ml): 4770 ± 1260 cpm | % of Control (piglet epidermal cells; Experiment 1, 10 μg/ml): 174 ± 76.1 % of Control | cpm ± SD (piglet epidermal cells; Experiment 1, 10 μg/ml): 6608 ± 2886 cpm
